According to US10669290B2, “Beta-lactamase inhibitors” (priority 2012, dated 2020):

Columns and labels:
Type in all cases: cell-based
K.P. A-1797 KPC-2 VIM-4 = assay: Broth microdilution MIC, K. pneumoniae A-1797; conditions: Klebsiella pneumoniae; fixed meropenem 4 μg/mL, CAMHB, 16-20 hours 37° C.; read-out: MIC of exemplary compounds in presence of fixed β-lactams, Fixed Mero, K.P. A-1797 KPC-2 VIM-4
From the text: (§1) To determine the ability of test compounds to potentiate the inhibition of the growth of bacterial strains that produce beta-lactamase enzymes, classic cell based broth microdilution MIC assays were employed. Six bacteria strains producing beta-lactamase enzymes were used: E. coli expressing the Class A Extended Spectrum Beta-Lactamase (ESBL) CTX-M-15, E. cloacae expressing the Class C P99, K. pneumoniae expressing the Class A carbapenemase KPC-2, P. aeruginosa expressing the Class B carbapenemase VIM-2, K. pneumoniae expressing the class A carbapenemase KPC-2 and the class B carbapenemase VIM-4, and S. aureus producing the Class A penicillinase PC-1. The assay was conducted in Cation Adjusted Mueller Hinton Broth (CAMHB, BD #212322, BD Diagnostic Systems, Sparks, Md.). Bacteria strains were grown for 3-5 hours in CAMBH broth. Test compounds were added to a microtiter plate in 2-fold serial dilutions in CAMHB in a final concentration range of 32 μg/mL to 0.25 μg/ml. An overlay of CAMHB containing a Beta-lactam was added to the compounds at a final static concentration of 4 μg/ml. […] In addition to the titration of test compounds the MICs of a panel of control beta-lactams is also tested to ensure the strains are behaving consistently from test to test. Once the test compound and antibiotics are added the plates can be inoculated according to CLSI broth microdilution method. After inoculation the plates are incubated for 16-20 hours at 37° C. then the Minimal Inhibitory Concentration (MIC) of the test compound is determined visually.
(§2) Using the methodology described above in EXAMPLE III, exemplary compounds for Formula I or Formula Ia were evaluated for their ability to inhibit the growth of β-lactamase producing bacteria in the presence of a β-lactam antibiotic.

S. aureus MSSA-7 PC-1 = assay: Broth microdilution MIC, S. aureus MSSA-7; conditions: Staphylococcus aureus, fixed piperacillin 4 μg/mL, CAMHB, 16-20 hours 37° C., read-out: MIC of exemplary compounds in presence of fixed β-lactams, Fixed Pip, S. aureus MSSA-7 PC-1
From the text: as §1, §2

E. coli ESBL4 CTX-M-15 = assay: Broth microdilution MIC, E. coli ESBL4; conditions: Escherichia coli, ESBL4CTXM15; fixed ceftazidime 4 μg/mL, CAMHB, 16-20 hours 37° C.; read-out: MIC of exemplary compounds in presence of fixed β-lactams, Fixed CAZ, E. coli ESBL4 CTX-M-15
From the text: as §1, §2

P. aerug. Ps296 VIM-2 = assay: Broth microdilution MIC, P. aeruginosa Ps296; conditions: Pseudomonas aeruginosa; fixed meropenem 4 μg/mL, CAMHB, 16-20 hours 37° C.; read-out: MIC of exemplary compounds in presence of fixed β-lactams, Fixed Mero, P. aerug. Ps296 VIM-2
From the text: as §1, §2

K.P. 156319 KPC-3 = assay: Broth microdilution MIC, K. pneumoniae 156319; conditions: Klebsiella pneumoniae; fixed meropenem 4 μg/mL, CAMHB, 16-20 hours 37° C.; read-out: MIC of exemplary compounds in presence of fixed β-lactams, Fixed Mero, K.P. 156319 KPC-3
E. cl 144200 p99 AmpC = assay: Broth microdilution MIC, E. cloacae 144200; conditions: Enterobacter cloacae; fixed ceftazidime 4 μg/mL, CAMHB, 16-20 hours 37° C.; read-out: MIC of exemplary compounds in presence of fixed β-lactams, Fixed CAZ, E. cl 144200 p99 AmpC
From the text: as §1, §2

| SMILES | MIC (K.P. A-1797 KPC-2 VIM-4) | MIC (S. aureus MSSA-7 PC-1) | MIC (E. coli ESBL4 CTX-M-15) | MIC (P. aerug. Ps296 VIM-2) | MIC (K.P. 156319 KPC-3) | MIC (E. cl 144200 p99 AmpC) |
| --- | --- | --- | --- | --- | --- | --- |
| N[C@H]1CC[C@H](CCC(=O)N[C@H]2Cc3cccc(C(=O)O)c3OB2O)CC1 [Example 21, (R)-3-(3-(trans-4-aminocyclohexyl)propanamido)-2-hydroxy-3,4-dihydro-2H-benzo[e][1,2]oxaborinine-8-carboxylic acid] | > 32 mg/L | < 4 mg/L | < 4 mg/L | 8 to 32 mg/L | < 4 mg/L | < 4 mg/L |
| CN(C)CCN(C)[C@H]1CC[C@H](CC(=O)N[C@H]2Cc3cccc(C(=O)O)c3OB2O)CC1 [Example 23, (R)-3-(2-(trans-4-((2-(dimethylamino)ethyl)(methyl)amino)cyclohexyl)acetamido)-2-hydroxy-3,4-dihydro-2H-benzo[e][1,2]oxaborinine-8-carboxylic acid] | > 32 mg/L | < 4 mg/L | < 4 mg/L | > 32 mg/L | < 4 mg/L | < 4 mg/L |
| O=C(C[C@H]1CC[C@H](NCc2cccnc2)CC1)N[C@H]1Cc2cccc(C(=O)O)c2OB1O [Example 27, (R)-2-hydroxy-3-(2-(trans-4-(pyridin-3-ylmethylamino)cyclohexyl)acetamido)-3,4-dihydro-2H-benzo[e][1,2]oxaborinine-8-carboxylic acid] | 8 to 32 mg/L | < 4 mg/L | < 4 mg/L | 8 to 32 mg/L | < 4 mg/L | < 4 mg/L |
| O=C(CC1CCCCC1)N[C@H]1Cc2cccc(C(=O)O)c2OB1O [Example 31, (R)-3-(2-cyclohexylacetamido)-2-hydroxy-3,4-dihydro-2H-benzo[e][1,2]oxaborinine-8-carboxylic acid] | > 32 mg/L | < 4 mg/L | < 4 mg/L | 8 to 32 mg/L | 8 to 32 mg/L | < 4 mg/L |
| O=C(C[C@H]1CC[C@H](NCc2ccccn2)CC1)N[C@H]1Cc2cccc(C(=O)O)c2OB1O [Example 32, (R)-2-hydroxy-3-(2-(trans-4-(pyridin-2-ylmethylamino)cyclohexyl)acetamido)-3,4-dihydro-2H-benzo[e][1,2]oxaborinine-8-carboxylic acid] | > 32 mg/L | < 4 mg/L | < 4 mg/L | 8 to 32 mg/L | < 4 mg/L | < 4 mg/L |
| N[C@H]1CC(CC(=O)N[C@H]2Cc3cccc(C(=O)O)c3OB2O)C[C@@H]1N [Example 37] | 8 to 32 mg/L | < 4 mg/L | < 4 mg/L | < 4 mg/L | < 4 mg/L | < 4 mg/L |
| CC(NC(=O)C1C[C@H](N)[C@@H](N)C1)C(=O)N[C@H]1Cc2cccc(C(=O)O)c2OB1O (stereo partly drawn) [Example 38] | < 4 mg/L | < 4 mg/L | < 4 mg/L | < 4 mg/L | < 4 mg/L | < 4 mg/L |
| N[C@@H](C(=O)N[C@H]1Cc2cccc(C(=O)O)c2OB1O)C1CCCCC1 [Example 42, (R)-3-((R)-2-amino-2-cyclohexylacetamido)-2-hydroxy-3,4-dihydro-2H-benzo[e][1,2]oxaborinine-8-carboxylic acid] | 8 to 32 mg/L | 8 to 32 mg/L | < 4 mg/L | < 4 mg/L | < 4 mg/L | < 4 mg/L |
| NCCNC1CCC(O)(CC(=O)N[C@H]2Cc3cccc(C(=O)O)c3OB2O)CC1 (stereo partly drawn) [Example 43, 3-{2-[4-(2-Amino-ethylamino)-1-hydroxy-cyclohexyl]-acetylamino}-2-hydroxy-3,4-dihydro-2H-benzo[e][1,2]oxaborinine-8-carboxylic acid] | > 32 mg/L | < 4 mg/L | < 4 mg/L | < 4 mg/L | < 4 mg/L | < 4 mg/L |

Continued, values first:

| MIC (K.P. A-1797 KPC-2 VIM-4) | MIC (S. aureus MSSA-7 PC-1) | MIC (E. coli ESBL4 CTX-M-15) | MIC (P. aerug. Ps296 VIM-2) | MIC (K.P. 156319 KPC-3) | MIC (E. cl 144200 p99 AmpC) | SMILES |
| --- | --- | --- | --- | --- | --- | --- |
| < 4 mg/L | < 4 mg/L | < 4 mg/L | 8 to 32 mg/L | < 4 mg/L | < 4 mg/L | N=C(N)N[C@H]1CC[C@H](CCC(=O)N[C@H]2Cc3cccc(C(=O)O)c3OB2O)CC1 [Example 22, (R)-3-(3-(trans-4-guanidinocyclohexyl)propanamido)-2-hydroxy-3,4-dihydro-2H-benzo[e][1,2]oxaborinine-8-carboxylic acid] |
| < 4 mg/L | < 4 mg/L | < 4 mg/L | < 4 mg/L | < 4 mg/L | < 4 mg/L | N=C(N)NCCN[C@H]1CC[C@H](CC(=O)N[C@H]2Cc3cccc(C(=O)O)c3OB2O)CC1 [Example 25, (R)-3-(2-(trans-4-(2-guanidinoethylamino)cyclohexyl)acetamido)-2-hydroxy-3,4-dihydro-2H-benzo[e][1,2]oxaborinine-8-carboxylic acid] |
| < 4 mg/L | < 4 mg/L | < 4 mg/L | < 4 mg/L | < 4 mg/L | < 4 mg/L | O=C(C[C@H]1CC[C@H](NCCO)CC1)N[C@H]1Cc2cccc(C(=O)O)c2OB1O [Example 26, (R)-2-hydroxy-3-(2-(trans-4-(2-hydroxyethylamino)cyclohexyl)acetamido)-3,4-dihydro-2H-benzo[e][1,2]oxaborinine-8-carboxylic acid] |
| > 32 mg/L | < 4 mg/L | < 4 mg/L | 8 to 32 mg/L | < 4 mg/L | < 4 mg/L | O=C(O)CN[C@H]1CC[C@H](CC(=O)N[C@H]2Cc3cccc(C(=O)O)c3OB2O)CC1 [Example 28, (R)-3-(2-(trans-4-(carboxymethylamino)cyclohexyl)acetamido)-2-hydroxy-3,4-dihydro-2H-benzo[e][1,2]oxaborinine-8-carboxylic acid] |
| > 32 mg/L | < 4 mg/L | < 4 mg/L | 8 to 32 mg/L | < 4 mg/L | < 4 mg/L | O=C(C[C@H]1CC[C@H](N2C=NCC2)CC1)N[C@H]1Cc2cccc(C(=O)O)c2OB1O [Example 29, (R)-3-(2-(trans-4-(4,5-dihydro-1H-imidazol-1-yl)cyclohexyl)acetamido)-2-hydroxy-3,4-dihydro-2H-benzo[e][1,2]oxaborinine-8-carboxylic acid] |
| 8 to 32 mg/L | < 4 mg/L | < 4 mg/L | 8 to 32 mg/L | < 4 mg/L | < 4 mg/L | N=CN[C@H]1CC[C@H](CC(=O)N[C@H]2Cc3cccc(C(=O)O)c3OB2O)CC1 [Example 30, (R)-3-(2-(trans-4-formimidamidocyclohexyl)acetamido)-2-hydroxy-3,4-dihydro-2H-benzo[e][1,2]oxaborinine-8-carboxylic acid] |
| 8 to 32 mg/L | < 4 mg/L | < 4 mg/L | 8 to 32 mg/L | < 4 mg/L | < 4 mg/L | O=C(C[C@H]1CC[C@H](NCC2CCNCC2)CC1)N[C@H]1Cc2cccc(C(=O)O)c2OB1O [Example 33, (R)-2-hydroxy-3-(2-(trans-4-(piperidin-4-ylmethylamino)cyclohexyl)acetamido)-3,4-dihydro-2H-benzo[e][1,2]oxaborinine-8-carboxylic acid] |
| 8 to 32 mg/L | < 4 mg/L | < 4 mg/L | < 4 mg/L | < 4 mg/L | < 4 mg/L | N=C(N)N1CCC(CN[C@H]2CC[C@H](CC(=O)N[C@H]3Cc4cccc(C(=O)O)c4OB3O)CC2)CC1 [Example 34, (R)-3-(2-(trans-4-((1-carbamimidoylpiperidin-4-yl)methylamino)cyclohexyl)acetamido)-2-hydroxy-3,4-dihydro-2H-benzo[e][1,2]oxaborinine-8-carboxylic acid] |
| 8 to 32 mg/L | < 4 mg/L | < 4 mg/L | 8 to 32 mg/L | < 4 mg/L | < 4 mg/L | O=C(C[C@H]1CC[C@H](NCc2nccs2)CC1)N[C@H]1Cc2cccc(C(=O)O)c2OB1O [Example 39] |
| > 32 mg/L | < 4 mg/L | < 4 mg/L | > 32 mg/L | < 4 mg/L | < 4 mg/L | O=C(CC1CCC(N2CCOCC2)CC1)N[C@H]1Cc2cccc(C(=O)O)c2OB1O (stereo partly drawn) [Example 40, (R)-2-hydroxy-3-(2-(4-morpholinocyclohexyl)acetamido)-3,4-dihydro-2H-benzo[e][1,2]oxaborinine-8-carboxylic acid] |
